Assay results published in patent US20200078404A1, “COMBINATION OF A CELL THERAPY AND AN IMMUNOMODULATORY COMPOUND” (Juno Therapeutics, Inc., priority 2017, published 2020).

Experiments:
K562.CD19 target cells = assay: Cytolytic function of anti-CD19 CAR-expressing T cells against K562.CD19 target cells; format: cell-based, human
Experimental: K562.CD19 target cells were transduced with NucLight Red to permit their tracking by microscopy. Cytolytic activity was assessed by measuring the loss of viable target cells over a period of five days, as determined by red fluorescent signal (using the IncuCyte® Live Cell Analysis System, Essen Bioscience).

anti-BCMA CAR T cells [1] = assay: Proliferation and expansion of anti-BCMA CAR T cells stimulated with BCMA-conjugated beads; format: cell-based, human; conditions: 5 μM lenalidomide
Experimental: (§1) Cryofrozen anti-BCMA CAR T cells, produced substantially as described in Example 2 and formulated at a 1:1 ratio of CD4+ and CD8+ T cells, were thawed.
Total cell count, monitored at day 4 (FIG. 21E) and day 7 (FIG. 21F), was increased following stimulation of anti-BCMA CAR+ T cells with beads from a 50 μg/mL BCMA-conjugated bead composition, but not 5 μg/mL BCMA-conjugated bead composition, compared to the cells present at the time of initiation of the incubation (dashed line).
To further assess proliferation, the cells containing anti-BCMA CAR-expressing T cells were labeled with the proliferation marker dye CELLTRACE VIOLET (CTV; ThermoFisher Scientific, Waltham Mass.) in accordance with the manufacturer's protocol prior to incubation with the BCMA-conjugated beads. Proliferation was assessed by dye dilution using flow cytometry on cells that were stimulated with beads from the 50 μg/mL BCMA-conjugated bead composition.
Four days and seven days after addition of BCMA-conjugated beads, the incubated cells were stained with CD4 or CD8 and with an anti-EGFR antibody to determine the percentage of cells positive for EGFRt as a surrogate for CAR+ T cells. At the time of plating, 26% of the CD4+ cells expressed anti-BCMA CAR and 39% of the CD8+ cells expressed anti-BCMA CAR as determined by staining with BCMA-Fc. The percent of EGFRt+CD4+ T cells increased from about 26% at the initiation of the incubation to greater than 40% by day 4 (FIG. 21H) and greater than 60% by day 7 (FIG. 21I) when the cells were incubated in the presence of beads from a 50 μg/mL BCMA-conjugated bead composition. […] The extent of cell expansion was greatest when cells were incubated in the presence of beads from a 50 μg/mL BCMA-conjugated bead composition compared to beads from the 5 μg/mL BCMA-conjugated bead composition.

OPM-2 = conditions: read-out: sensitive to lenalidomide; cited from earlier work
anti-BCMA CAR+ T cells [2] = assay: 3-D reconstructed bone marrow (rBone) myeloma model with RPMI-8226; format: cell-based, human; conditions: 1.0 μM lenalidomide
Source text: To assess cell function in the context of a three-dimensional (3-D) human BCMA-expressing tissue microenvironment, a reconstructed bone marrow (rBone™) (z[…], San Jose, Calif.) was embedded with BCMA-expressing RPMI-8226.
After 2 or 7 days, cells were isolated and assessed by flow cytometry for surface expression of CD3, CD25, CD4, and CD8.

anti-BCMA CAR+ T cells [3] = assay: Serial restimulation of anti-BCMA CAR+ T cells with irradiated MM1.S cells: expansion, cytokines, CD25; format: cell-based, human
Experimental: Anti-BCMA CAR+ T cells generated as described above were plated in triplicate at 1×10^5 cells/well on 96-well plates.
Every 3-4 days (start of each new round), CAR T cells were counted. […] 8 rounds of stimulation were carried out during a 31 day culture period. For some rounds, at re-plating, cells were assessed for phenotypic markers via flow cytometry.
Culture conditions were reset every 3-4 days. Replating was maintained for 28 days or until the cell count was <50,000 cells. Experiments were performed in triplicate in 3 donors.

anti-BCMA CAR T cells [4] = assay: Cytokines of anti-BCMA CAR T cells stimulated with BCMA-conjugated beads (supernatant, intracellular); format: cell-based, human; conditions: 24 hours
Experimental: as §1
Twenty four hours after addition of BCMA-conjugated beads, the presence of TNF-α, IFNγ, and IL-2 in culture supernatants was assessed.
In a further exemplary study, two different anti-BCMA CAR T cell compositions were generated from different donors, each containing T cells expressing the same anti-BCMA CAR. The cells were thawed and incubated with beads (diameter about 4.5 μm) from a 5 μg/mL or 200 μg/mL BCMA-conjugated bead composition generated as described in Example 1. […] Twenty four hours after addition of BCMA-conjugated beads, IL-2 production by the anti-BCMA CAR+ T cells was assessed in culture supernatants.
The cells were gated on transduced, live CD3+ cells, and assessed by flow cytometry for intracellular cytokine accumulation of IFNγ and TNFα in CD4+ and CD8+ cells.

RPMI-8226 target cells [5] = assay: Serial restimulation on BCMA-conjugated beads, cytolytic activity against RPMI-8226 at each reset; format: cell-based, human; conditions: preincubated with 5 μM lenalidomide for 7 days or 14 days
Experimental: Anti-BCMA CAR T cell compositions were generated from three different donors, each containing T cells expressing the same anti-BCMA CAR, thawed, and were incubated for seven days with beads (diameter about 4.5 μm) at a 1:1 ratio of beads to cells from a 50 μg/mL BCMA-conjugated bead composition generated as described in Example 9.
Cells from each condition were plated in triplicate. The % cell killing compared to vehicle only control (set at 100%) was determined.

[6] = tested on: anti-BCMA CAR T cells with OPM-2; assay: Cytokine production of anti-BCMA CAR T cells co-cultured with OPM-2 with or without lenalidomide; format: cell-based, human
RPMI-8226 target cells [7] = assay: Cytolytic activity of anti-BCMA CAR T cells co-cultured with RPMI-8226 target cells with or without lenalidomide; format: cell-based, human
Experimental: […]. […] Cells from each condition were plated in triplicate.

[8] = 0.1 μM lenalidomide, repeated stimulation

## Nc1cccc2c1CN(C1CCC(=O)NC1=O)C2=O (stereo not shown) [lenalidomide, 3-(4-amino-1-oxo-1,3-dihydro-2H-isoindol-2-yl)piperidine-2,6-dione]
K562.CD19 target cells; 2.5:1 E:T ratio, some donors
  cytolytic activity of anti-CD19 CAR-expressing cells: slightly reduced cytolytic activity
K562.CD19 target cells; 5:1 E:T ratio, high concentrations, Donor 2, no effects with Donors 1 and 3
  cytolytic activity of anti-CD19 CAR-expressing T cells: slight but consistent increase in cytolytic activity
K562.CD19 target cells; five days, three donors
  cytolytic function of anti-CD19 CAR-expressing T cells: limited effect on cytolytic function
anti-BCMA CAR T cells [1]; 50 ug beads, day 7
  total cell count (proliferation): small increase in proliferation
anti-BCMA CAR T cells [1]; 50 μg/mL beads, day 4 but not day 7
  proliferation by CTV dilution: slight delay in proliferation
anti-BCMA CAR T cells [1]; day 4 and day 7
  extent of CAR+ T cell expansion (% EGFRt+): did not substantially impact the extent of CAR+ T cell expansion
OPM-2
  IC50: 37.4 µM
anti-BCMA CAR+ T cells [2]
  CD25+ expression in CD4+ and CD8+ T cell populations: increase in CD25+ expression
anti-BCMA CAR+ T cells [2]; day 7
  total number of CD3+ cells: increase in total number of CD3+ cells
anti-BCMA CAR+ T cells [3]; 0.1 μM lenalidomide, 3 donors, over 28 days
  projected cell counts: increased projected cell counts
anti-BCMA CAR+ T cells [3]; [8]
  CAR T CD25 expression (MFI): significant increase in CAR T CD25 expression
  IL-2, IFN-γ, and TNF-α production in the media: significant increase
anti-BCMA CAR+ T cells [3]; 0.1 μM lenalidomide, six donors
  CAR-T expansion: an increase or no change in CAR-T expansion
anti-BCMA CAR+ T cells [3]; 0.01-10 μM lenalidomide, by day 14, vs no lenalidomide
  expansion of anti-BCMA CAR T cells: increased expansion of anti-BCMA CAR T cells
anti-BCMA CAR+ T cells [3]; beginning between day 21 and day 28
  expansion of cells expressing two different human anti-BCMA CARs: increase expansion in both cell populations
anti-BCMA CAR T cells [4]; 0.1 μM or 1 μM lenalidomide, 5, 50 or 200 μg/mL beads
  intracellular cytokine levels of IFNγ and TNFα: increased by lenalidomide
anti-BCMA CAR T cells [4]; 1 μM or 5 μM lenalidomide, 5 or 200 μg/mL BCMA beads, two donors
  IL-2 production: increased cytokine production
anti-BCMA CAR T cells [4]; 5 μM lenalidomide, 5 or 50 μg/mL BCMA beads
  BCMA-induced CAR+ T cell cytokine production (IFNγ, IL-2, TNF-α): increased BCMA-induced CAR+ T cell cytokine production
RPMI-8226 target cells [5]
  cytolytic activity: exhibited greater cytolytic activity
[6]; 0.01-10 μM lenalidomide, E:T 1:1, 24 hours, four donors
  cytokine production and/or accumulation (IFNγ, IL-2, TNF-α): enhance cytokine production and/or accumulation by antigen-stimulated anti-BCMA CAR+ T cells in a dose-dependent manner
[6]; all CAR T donors, concentration-dependent
  IFN-γ, IL-2 and TNF-α production: significantly increased IFN-γ, IL-2, and TNF-α production
[6]; healthy donor and multiple myeloma patient, E:T 1:1, 24 hours
  cytokine production (IFNγ, IL-2): increased by lenalidomide in a concentration-dependent manner
RPMI-8226 target cells [7]; 1 μM or 10 μM lenalidomide, E:T 0.3:1, day 6, vs absence of lenalidomide
  target cell killing by anti-BCMA CAR+ T cells: greater degree of target cell killing
RPMI-8226 target cells [7]; in culture
  time at which the effect of lenalidomide on cytolytic activity emerges: > 50 h
RPMI-8226 target cells [7]; three healthy donors and one IMiD-refractory patient, 0.01-10 μM
  treatment effect of lenalidomide on CAR T cytolytic activity: appeared to be donor-dependent
